Test results published in patent publication US12202835B2, “Substituted aromatic ring-linked dioxinoquinazolines and dioxinoquinolines as kinase inhibitors” (BEIJING SCITECH-MQ PHARMACEUTICALS LIMITED, priority 2018, dated 2025).
Like-named read-outs stand apart in the source and are kept apart here.

Tested on: EBC1 cells
Experiment: Assay for inhibiting the proliferation of EBC1 cells (CCK-8)
Format: cell-based
Experimental: In particular, the method of the assay of small molecular compounds for inhibiting cell proliferation is as follows: • 1. Cells cultured to a logarithmic growth phase (adherent cells need to be digested with trypsin and neutralized) were taken, pipetted evenly, transferred to a 15 mL centrifuge tube, and centrifuged at 1000 rpm at room temperature for 4 minutes; • 2. The supernatant was discarded; 5 mL of complete medium was added and pipetted evenly; 10 μL of cell suspension was taken out, mixed well with 10 μL of 0.4% trypan blue, and counted under a cell counter; the proportion of living cells was ensured to be above 90%; • 3. 80 μL of cell suspension per well was seeded into a 96-well plate according to the conditions shown in the attached table, and cultured overnight; in the outer 36 wells of the 96-well plate, no cells were added but only sterile water was added; only the inner 60 wells were used for cell assay and control; • 4. 5×compound dilution: the compounds were serially diluted 3-fold to obtain a total of 9 concentrations; 80-fold overall dilution was completed with complete medium, the resulting concentration was 5 times the final drug concentration, and DMSO concentration was 1.25%; • 5. 20 μL of the corresponding compounds with different concentration gradients were added to each well of assay wells of the 96-well plate; 20 μL of complete medium was added to positive and negative control wells and shaken well; and the final concentration of DMSO in each well was 0.25%; • 6. After 72 hours of incubation, 10 μL of CCK-8 reagent was added to each well and further incubated at 37° C. for 1-2 hours; and the OD value was read at 450 nm; • 7. Cell survival rate (%)=[(As−Ab)/(Ac−Ab)]*100% • As: Assay well (medium containing cells, CCK-8, compound), • Ac: Control well (medium containing cells, CCK-8), • Ab: Blank well (CCK-8, medium without cell and compound), • 8. The values were imported into Graphpad Prism 5 software for IC50 calculation.

Q: Which IC50 (Homo sapiens, EBC-1) does the source give for `CCOc1ccn(-c2cccc(F)c2)c(=O)c1C(=O)Nc1ccc(Oc2ccnc3cc(OC)c4c(c23)OCCO4)c(F)c1` [Example 114, N-(3-fluoro-4-((5-methoxy-2,3-dihydro-[1,4]dioxino[2,3-f]quinolin-10-yl)oxy)phenyl)-2-oxo-4-ethoxy-1-(3-fluorophenyl)-1,2-dihydropyridin-3-carboxamide] here?
A: 0.05 to 0.2 µM

Q: For `COc1cc2nccc(Oc3ccc(NC(=O)c4cccn(-c5ccc(F)cc5)c4=O)cc3F)c2c2c1OCCO2` [Example 17, N-(3-fluoro-4-((5-methoxy-2,3-dihydro-[1,4]dioxino[2,3-f]quinolin-10-yl)oxy)phenyl)-1-(4-fluorophenyl)-2-oxo-1,2-dihydropyridine-3-carboxamide], which IC50 (Homo sapiens, EBC-1) is on record?
A: ≤ 0.05 µM

Q: `COc1cn(-c2ccc(F)cc2C)nc1C(=O)Nc1ccc(Oc2ccnc3cc(OCCCN4CCOCC4)c4c(c23)OCCO4)c(F)c1` [Example 27, 1-(4-fluoro-2-methylphenyl)-N-(3-fluoro-4-((5-(3-morpholinopropoxy)-2,3-dihydro-[1,4]dioxino[2,3-f]quinolin-10-yl)oxy)phenyl)-4-methoxy-1H-pyrazole-3-carboxamide] was tested. Which IC50 (Homo sapiens, EBC-1) did it give?
A: 0.05 to 0.2 µM

Q: How did the IC50 (Homo sapiens, EBC-1) turn out when `CCn1cc(C(=O)Nc2ccc(Oc3ccnc4cc(OCCCN5CCCCC5)c5c(c34)OCCO5)c(F)c2)c(=O)n(-c2ccc(F)cc2)c1=O` [Example 41, N-(3-fluoro-4-((5-(3-(piperidin-1-yl)propoxy)-2,3-dihydro-[1,4]dioxino[2,3-f]quinolin-10-yl)oxy)phenyl)-3-(4-fluorophenyl)-1-ethyl-2,4-dioxo-1,2,3,4-tetrahydropyrimidine-5-carboxamide] was run?
A: ≤ 0.05 µM

Q: Which IC50 (Homo sapiens, EBC-1) does the source give for `COCCOc1cc2nccc(Oc3ccc(NC(=O)c4cn(C)c(=O)n(-c5ccc(F)cc5)c4=O)cc3F)c2c2c1OCCO2` [Example 42, N-(3-fluoro-4-((5-(2-methoxyethoxy)-2,3-dihydro-[1,4]dioxino[2,3-f]quinolin-10-yl)oxy)phenyl)-3-(4-fluorophenyl)-1-methyl-2,4-dioxo-1,2,3,4-tetrahydropyrimidine-5-carboxamide] here?
A: ≤ 0.05 µM

Q: With `COc1ccn(-c2ccc(F)cc2)c(=O)c1C(=O)Nc1ccc(Oc2ccnc3cc(OCCCN4CCCCC4)c4c(c23)OCCO4)c(F)c1` [Example 32, N-(3-fluoro-4-((5-(3-(piperidin-1-yl)propoxy)-2,3-dihydro-[1,4]dioxino[2,3-f]quinolin-10-yl)oxy)phenyl)-1-(4-fluorophenyl)-4-methoxy-2-oxo-1,2-dihydropyridine-3-carboxamide] as the molecule, how does the IC50 (Homo sapiens, EBC-1) read?
A: ≤ 0.05 µM

Q: How did the IC50 (Homo sapiens, EBC-1) turn out when `CCOc1ccn(-c2ccc(F)cc2)c(=O)c1C(=O)Nc1ccc(Oc2ccnc3cc(OCCCN4CCCCC4)c4c(c23)OCCO4)c(F)c1` [Example 33, N-(3-fluoro-4-((5-(3-(piperidin-1-yl)propoxy)-2,3-dihydro-[1,4]dioxino[2,3-f]quinolin-10-yl)oxy)phenyl)-1-(4-fluorophenyl)-4-ethoxy-2-oxo-1,2-dihydropyridine-3-carboxamide] was run?
A: ≤ 0.05 µM

Q: For `COc1cc2nccc(Oc3ccc(NC(=O)c4c(OC)ccn(-c5ccc(F)cc5)c4=O)cc3F)c2c2c1OCCO2` [Example 18, N-(3-fluoro-4-((5-methoxy-2,3-dihydro-[1,4]dioxino[2,3-f]quinolin-10-yl)oxy)phenyl)-1-(4-fluorophenyl)-4-methoxy-2-oxo-1,2-dihydropyridine-3-carboxamide], which IC50 (Homo sapiens, EBC-1) is on record?
A: ≤ 0.05 µM

Q: For `CCOc1ccn(-c2ccc(F)cc2)c(=O)c1C(=O)Nc1ccc(Oc2ccnc3cc(OC)c4c(c23)OCCO4)c(F)c1` [Example 19, N-(3-fluoro-4-((5-methoxy-2,3-dihydro-[1,4]dioxino[2,3-f]quinolin-10-yl)oxy)phenyl)-1-(4-fluorophenyl)-4-ethoxy-2-oxo-1,2-dihydropyridine-3-carboxamide], which IC50 (Homo sapiens, EBC-1) is on record?
A: ≤ 0.05 µM

Q: For `CCOc1ccn(-c2ccc(C)cc2)c(=O)c1C(=O)Nc1ccc(Oc2ccnc3cc(OC)c4c(c23)OCCO4)c(F)c1` [Example 112, N-(3-fluoro-4-((5-methoxy-2,3-dihydro-[1,4]dioxino[2,3-f]quinolin-10-yl)oxy)phenyl)-2-oxo-4-ethoxy-1-(4-methylphenyl)-1,2-dihydropyridin-3-carboxamide], which IC50 (Homo sapiens, EBC-1) is on record?
A: 0.05 to 0.2 µM

Q: With `COc1cc2nccc(Oc3ccc(NC(=O)c4cn(CCCO)c(=O)n(-c5ccc(F)cc5)c4=O)cc3F)c2c2c1OCCO2` [Example 99, N-(3-fluoro-4-((5-methoxy-2,3-dihydro-[1,4]dioxino[2,3-f]quinolin-10-yl)oxy)phenyl)-3-(4-fluorophenyl)-1-(3-hydroxypropyl)-2,4-dioxo-1,2,3,4-tetrahydropyrimidine-5-carboxamide] as the molecule, how does the IC50 (Homo sapiens, EBC-1) read?
A: ≤ 0.05 µM

Q: With `O=C(Nc1ccc(Oc2ncnc3cc(OCCCN4CCOCC4)c4c(c23)OCCO4)c(F)c1)c1cccn(-c2ccc(F)cc2)c1=O` [Example 4, N-(3-fluoro-4-((5-(3-morpholinopropoxy)-2,3-dihydro-[1,4]dioxino[2,3-f]quinazolin-10-yl)oxy)phenyl)-1-(4-fluorophenyl)-2-oxo-1,2-dihydropyridine-3-carboxamide] as the molecule, how does the IC50 (Homo sapiens, EBC-1) read?
A: ≤ 0.05 µM

Q: With `Cn1cc(C(=O)Nc2ccc(Oc3ccnc4cc(OCCCN5CCCCC5)c5c(c34)OCCO5)c(F)c2)c(=O)n(-c2ccc(F)cc2)c1=O` [Example 39, N-(3-fluoro-4-((5-(3-(piperidin-1-yl)propoxy)-2,3-dihydro-[1,4]dioxino[2,3-f]quinolin-10-yl)oxy)phenyl)-3-(4-fluorophenyl)-1-methyl-2,4-dioxo-1,2,3,4-tetrahydropyrimidine-5-carboxamide] as the molecule, how does the IC50 (Homo sapiens, EBC-1) read?
A: ≤ 0.05 µM

Q: Which IC50 (Homo sapiens, EBC-1) does the source give for `CCOc1ccn(-c2ccc(F)cc2)c(=O)c1C(=O)Nc1cc(F)c(Oc2ccnc3cc(OC)c4c(c23)OCCO4)cc1Cl` [Example 115, N-(2-chloro-5-fluoro-4-((5-methoxy-2,3-dihydro-[1,4]dioxino[2,3-f]quinolin-10-yl)oxy)phenyl)-4-ethoxy-2-oxo-1-(4-fluorophenyl)-1,2-dihydropyridin-3-carboxamide] here?
A: ≤ 0.05 µM

Q: How did the IC50 (Homo sapiens, EBC-1) turn out when `COc1cc2nccc(Oc3cc(Cl)c(NC(=O)c4cn(C)c(=O)n(-c5ccc(F)cc5)c4=O)cc3F)c2c2c1OCCO2` [Example 116, N-(2-chloro-5-fluoro-4-((5-methoxy-2,3-dihydro-[1,4]dioxino[2,3-f]quinolin-10-yl)oxy)phenyl)-3-(4-fluorophenyl)-1-methyl-2,4-dioxo-1,2,3,4-tetrahydropyrimidine-5-carboxamide] was run?
A: ≤ 0.05 µM

Q: `Cn1cc(C(=O)Nc2ccc(Oc3ccnc4cc(OCCCN5CCOCC5)c5c(c34)OCCO5)c(F)c2)c(=O)n(-c2ccc(F)cc2)c1=O` [Example 15, N-(3-fluoro-4-((5-(3-morpholinopropoxy)-2,3-dihydro-[1,4]dioxino[2,3-f]quinolin-10-yl)oxy)phenyl)-3-(4-fluorophenyl)-1-methyl-2,4-dioxo-1,2,3,4-tetrahydropyrimidine-5-carboxamide] was tested. Which IC50 (Homo sapiens, EBC-1) did it give?
A: ≤ 0.05 µM

Q: How did the IC50 turn out when `O=C(Nc1ccc(Oc2ccnc3cc(OCCCN4CCCCC4)c4c(c23)OCCO4)c(F)c1)c1cccn(-c2ccc(F)cc2)c1=O` [Example 31, N-(3-fluoro-4-((5-(3-(piperidin-1-yl)propoxy)-2,3-dihydro-[1,4]dioxino[2,3-f]quinolin-10-yl)oxy)phenyl)-1-(4-fluorophenyl)-2-oxo-1,2-dihydropyridine-3-carboxamide] was run?
A: ≤ 0.05 µM

Q: With `COCCOc1cc2nccc(Oc3ccc(NC(=O)c4c(OC)ccn(-c5ccc(F)cc5)c4=O)cc3F)c2c2c1OCCO2` [Example 35, N-(3-fluoro-4-((5-(2-methoxyethoxy)-2,3-dihydro-[1,4]dioxino[2,3-f]quinolin-10-yl)oxy)phenyl)-1-(4-fluorophenyl)-4-methoxy-2-oxo-1,2-dihydropyridine-3-carboxamide] as the molecule, how does the IC50 (Homo sapiens, EBC-1) read?
A: ≤ 0.05 µM
